Source: PubChem BioAssay AID256 (DTP/NCI, 2004)
Toxic doses and inconclusive results are not listed. Rule for the calls: active = survival T/C of 150% or more; inactive = T/C below 125% in these data.

System: CD2F1 mice, L1210 leukemia ip, survival T/C
Test: NCI In Vivo Anticancer Drug Screen. Data for tumor model L1210 Leukemia (intraperitoneal) in CD2F1 (CDF1) mice
Details: endpoint: mean survival time, higher = longer survival
Summary of the method: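 Implant tumor; dose compound or vehicle; measure endpoint in both groups; report treated divided by control.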

[1] = dose: 25.0 mg/kg/injection, schedule: Q01DX009 (ip), vehicle: saline with Tween-80
[2] = dose: 50.0 mg/kg/injection, schedule: Q01DX009 (ip), vehicle: saline with Tween-80
[3] = dose: 100.0 mg/kg/injection, schedule: Q01DX009 (ip), vehicle: saline with Tween-80
[4] = dose: 100.0 mg/kg/injection, schedule: Q04DX003 (ip), vehicle: saline with Tween-80
[5] = dose: 200.0 mg/kg/injection, schedule: Q04DX003 (ip), vehicle: saline with Tween-80
[6] = dose: 400.0 mg/kg/injection, schedule: Q04DX003 (ip), vehicle: saline with Tween-80

Measured: T/C

[Cl][Pt+2][Cl].[NH-]c1cc(F)ccc1F.[NH-]c1cc(F)ccc1F
inactive: dose: 3.13 mg/kg/injection, schedule: Q04DX003 (ip), vehicle: distilled water + Tween-80 112 % of control | dose: 6.25 mg/kg/injection, schedule: Q04DX003 (ip), vehicle: distilled water + Tween-80 110 % of control | dose: 12.5 mg/kg/injection, schedule: Q04DX003 (ip), vehicle: distilled water + Tween-80 112 % of control | dose: 25.0 mg/kg/injection, schedule: Q04DX003 (ip), vehicle: distilled water + Tween-80 120 % of control | dose: 50.0 mg/kg/injection, schedule: Q04DX003 (ip), vehicle: distilled water + Tween-80 110 % of control

N#CC1(Cc2ccc(OCc3ccccc3)c(OCc3ccccc3)c2)c2ccccc2C=CN1C(=O)c1ccccc1 (configuration not stated)
inactive: [1] 103 % of control | [2] 100 % of control | [3] 91 % of control

CC12CCC(OC3CCCCO3)CC1=CCC1C2CCC2(C)C1CCC2(O)CCN (configuration not stated)
inactive: dose: 6.25 mg/kg/injection, schedule: Q01DX005 (ip), vehicle: other 100 % of control | dose: 12.5 mg/kg/injection, schedule: Q01DX005 (ip), vehicle: other 97 % of control | dose: 15.6 mg/kg/injection, schedule: Q01DX001 (ip), vehicle: Klucel (hydroxypropylcellulose) (HPC) 104 % of control | dose: 31.2 mg/kg/injection, schedule: Q01DX001 (ip), vehicle: Klucel (hydroxypropylcellulose) (HPC) 96 % of control | dose: 62.5 mg/kg/injection, schedule: Q01DX001 (ip), vehicle: Klucel (hydroxypropylcellulose) (HPC) 98 % of control

CO/C=C1\Cc2cc(OC)c(OC)cc2C1=O
inactive: [4] 100 % of control | [5] 94 % of control | [6] 102 % of control

CC(=O)OC1CCCCCCCCCCC12OCCO2 (configuration not stated)
inactive: dose: 100.0 mg/kg/injection, schedule: Q04DX002 (ip), vehicle: other 104 % of control | dose: 400.0 mg/kg/injection, schedule: Q04DX002 (ip), vehicle: other 115 % of control

CCOC(C[Se][Se]CC(OCC)OCC)OCC
inactive: dose: 3.13 mg/kg/injection, schedule: Q01DX009 (ip), vehicle: saline 100 % of control | dose: 6.25 mg/kg/injection, schedule: Q01DX009 (ip), vehicle: saline 108 % of control | dose: 6.25 mg/kg/injection, schedule: Q04DX003 (ip), vehicle: saline with Tween-80 95 % of control | dose: 12.5 mg/kg/injection, schedule: Q04DX003 (ip), vehicle: saline with Tween-80 102 % of control

Cc1ccc(C(=O)c2ccc(C)cc2)cc1
inactive: dose: 100.0 mg/kg/injection, schedule: Q01DX009 (ip), vehicle: saline 90 % of control | dose: 100.0 mg/kg/injection, schedule: Q04DX002 (ip), vehicle: saline 93 % of control | dose: 200.0 mg/kg/injection, schedule: Q01DX009 (ip), vehicle: saline 93 % of control | dose: 200.0 mg/kg/injection, schedule: Q04DX002 (ip), vehicle: saline 95 % of control | dose: 400.0 mg/kg/injection, schedule: Q01DX009 (ip), vehicle: saline 93 % of control | dose: 400.0 mg/kg/injection, schedule: Q04DX002 (ip), vehicle: saline 95 % of control

Cc1cc2nc(CN)[nH]c2cc1C
inactive: dose: 100.0 mg/kg/injection, schedule: Q04DX003 (ip), vehicle: saline 98 % of control | dose: 200.0 mg/kg/injection, schedule: Q04DX003 (ip), vehicle: saline 95 % of control

Nc1ccc(CCCCNC(=O)c2ccccc2)cc1
inactive: [4] 93 % of control | [5] 96 % of control | [6] 90 % of control

Cc1cc(NC(=O)NCc2ccc(N3C(N)=NC(N)=NC3(C)C)cc2)ccc1S(=O)(=O)F
inactive: dose: 12.5 mg/kg/injection, schedule: Q01DX009 (ip), vehicle: saline with Tween-80 101 % of control | [1] 106 % of control | [2] 104 % of control | [3] 123 % of control
